Patent US20230391881A1, “COMPOSITIONS AND METHODS FOR OVERCOMING DR5-INDUCED IMMUNE EVASION BY SOLID TUMORS” (University of Virginia Patent Foundation, priority 2020, published 2023)
*1 amine or outer side, *2 acyl side, *3 side chain or, on linkers, in order; H or OH if unused. Where a SMILES comes first, the peptide text is derived from it. Bridges are numbered along the chain shown (N, C = ends). Roman numbers before positions name the chains, in order. [ ]: non-standard residue; d: D form. The star is where a group is joined. Actinocin(9to1) = Cc1c2oc3c(C)ccc(C(=O)[*:1])c3nc-2c(C(=O)[*:2])c(N)c1=O; NMeV = CN[C@H](C(=O)O)C(C)C; Cbz = O=C(OCc1ccccc1)*; Sar = CNCC(=O)O

Experiments:
PD-L1 = assay: Western blotting / flow cytometry of PD-L1 and regulators in tumor cells; format: cell-based, human; details: for reversal of PD-L1 stability generated by DR5 agonists: MDA-MB-436 cells pretreated 0-8 hours with inhibitor, then DR5 agonist 6 hours
Experimental: Western Blotting. Cells were cultured overnight in tissue culture-treated 6-well plates prior to treatment. After antibody treatment for 48 hours or another indicated time, cells were rinsed with PBS and then lysed with RIPA buffer supplemented with protease inhibitor cocktail (ThermoFisher Scientific). Centrifugation at 14000 rpm for 30 minutes cleared lysates and protein was quantified by PIERCE™ BCA Protein Assay Kit (ThermoFisher Scientific). Western blotting was performed using the Bio-Rad SDS-PAGE Gel system. Briefly, 30 μg of protein was resolved on 10% Bis-Tris gels and then transferred onto PVDF membrane. Membranes were blocked for one hour at room temperature in TBS+0.1% Tween (TBST) with 5% non-fat dry milk. Membranes were probed overnight at 4° C. with primary antibodies. Membranes were washed three times in TBST and then incubated with anti-rabbit or anti-mouse secondary antibodies (1/10,000 dilution, coupled to peroxidase) for 1 hour at room temperature. Membranes were then washed three times with TBST and immunocomplexes were detected with SUPERSIGNAL™ West Pico Chemiluminescent Substrate (ThermoFisher Scientific). Images were taken using a Bio-Rad Gel Doc Imager system.
(§1) Flow cytometry. The cell surface expression of PD-L1, CD47, huDR5, muDR5, CD8, CD4, CD25 etc. was analyzed by flow cytometry. Overnight grown tumors were trypsinized and suspended in FACS buffer (PBS containing 2% FBS). Single cell suspensions were then incubated with primary DR4/DR5 antibodies for 1 hour at 4° C. with gentle mixing. Following wash with FACS buffer, the cells were then incubated with fluorescently labeled anti-Rabbit antibody for 1 hour. Cells were washed and flow cytometry was performed using a BD FACSCALIBUR™ flow cytometer. The data was analyzed by FCS Express (De Novo Software, Los Angeles, California, United States of America) and FlowJo.

PD-L1-PD-1 interaction = assay: PD-1/PD-L1 tumor cell-Jurkat cell co-culture luciferase reporter assay; format: cell-based, human; details: tumor cells pretreated with ROCK1 inhibitor then DR5 agonist
Experimental: PD-1/PD-L1 reporter assay. […] The original kit contains PD-1 effector Jurkat T cells stably express human PD-1 and NFAT-induced luciferase, while PD-L1 aAPC/CHO-K1 cells stably express human PD-L1 and a cell surface protein designed to activate cognate TCRs in an antigen-independent manner. […] Antibodies blocking PD-1-PD-L1 interaction removes inhibitory signals, resulting in luciferase activation. […] Next day, medium was removed from the culture plate and cells were treated with diluted DR5 agonist antibodies. […] Glo response NFAT-luc2/PD1 Jurkat cells (Promega) were re-suspended in assay buffer and incubated with 1 μg/ml anti-CD3 for 2 hours to activate PD1 Jurkat cells. […] After 6 hours of co-culture, assay plates were removed from the incubator; content of each well were mixed thoroughly with the help of multi-channel pipette and then transferred to a white opaque assay plate. 10 mg/ml luciferase reagent was prepared and loaded into the plate reader, which injects 50 μl reagent in each well and measures luminescence immediately. Data was analyzed using Microsoft Excel software. Wherever indicated, inhibitors (ERK, STAT3, Caspase, ROCK1 etc.) were added 2-3 hrs prior to DR5 agonist antibodies in 96 well culture of tumors as described herein.

4T1 tumors = assay: Tumor regression in 4T1 syngeneic TNBC tumor models; format: in vivo, mouse; details: BALB/c mice, 4T1 tumors; MD5-1 50 μg i.p., GSK269962 2 mg/kg into the tumors (FIG. 4K)
Experimental: FIGS. 4A-4K. DR5 agonist activated ROCK1 functions to help PD-L1 surface mobilization. (FIGS. 4A and 4B) KMTR2 and lexatumumab treated MDA-MB-436 and OVCAR3 (respectively) lysates for indicated early time points were analyzed for caspase-8, caspase-3, ROCK1, pMLC, PARP, PD-L1 and CMTM6 etc. as indicated. Vertical arrows indicate sequential kinetics of caspase-8, ROCK1, and caspase-3 activation, arrows with “n.s.” below them indicate nonspecific band by ROCK1 antibody. (FIG. 4C) OVCAR3 cells were treated with pMLC activating ionophore A23187 (positive control) and lexatumumab ±ROCK1 inhibitors or ±rDR5 or ±rFOLR1. Lysates were later analyzed for ROCK1, pMLC, caspase-3 and PARP with GAPDH as loading control. (FIG. 4D) MDA-MB-436 and OVCAR3 cells were treated with indicated ROCK1 inhibitors 2 hours prior to DR5 agonist KMTR2 treatment. After 4 hours flow cytometry was used to analyze surface PD-L1. […] Relative luciferase signal was quantified and plotted after subtraction of background signal from untreated cells. […] Tumor volumes were quantified at indicated days by caliper measurements. […] Statistical significance in FIG. 4J was determined by unpaired student t-test and in FIG. 4K using two-tailed […] Wilcoxon Mann-Whitney test. […]
FIGS. 6A-6M. […] CD8/CD45 and CD4/CD45 expressing cells were measured by flow cytometry. […] Harvested tumors homogenized followed by quantitation. […]

MDA-MB-436 cells = assay: Flow cytometry of surface PD-L1 on tumor cells treated with DR5 agonist antibodies (FIG. 20B); format: cell-based, human
Experimental: FIGS. 20A-20C. (FIG. 20A) 3 biological replicates of total PD-L1 and GAPDH from triple negative breast cancer cell (MDAMB-436) and ovarian cell (OVCAR-3) lysates treated with lexatumumab for 6 hours. (FIG. 20B) Raw mean fluorescent intensity (MFI) and % positive PD-L1 counts from the cells treated with indicated DR5 agonist antibodies. MFI values are shown on the top of solid color bars. There are multiple instances (shown on the top) where despite having lower % positive PD-L1 population, MFI values were higher after indicated DR5 agonist treatments. As an example, in MDA-MB-436 cells treated with tigatuzumab and lexatumumab, lexatumumab treated cells had higher % positive PD-L1 population (9.32 vs 11.97), however MFI was higher in tigatuzumab treated population (107.54 vs 45.87). (FIG. 20C) KMTR2 treated (50 μg, 4 doses) UCD52 TNBC PDX tumors were stained for PD-L1 using immunohistochemistry (IHC). 3 additional representative images are shown. Also see FIG. 1L.
as §1
PD-L1 surface expression analysis of tumor derived cells. The cell surface expression of PD-L1 from tumor-derived cell was analyzed by flow cytometry. Isolated cells were suspended in FACS buffer (PBS containing 1% FBS). The single cell suspension was then incubated with primary PD-L1 antibodies (1:400 dilution) for 1 hour at 4° C. with gentle mixing. […] Following 3 times wash with FACS buffer, the cells were then incubated with fluorescently labeled (alexa 488) anti-Rabbit secondary antibody for 1 hour. Cells were then washed 3-4 times with FACS buffer and flow cytometry was performed using BD FACSCALIBUR™. The data was analyzed by FCS Express (De Novo Software) and FlowJo software.

Compound | reversal of PD-L1 stability generated by DR5 agonists (PD-L1) | luciferase activity in co-culture reporter assay in presence of ROCK1 inhibitors (PD-L1-PD-1 interaction) | also measured
C[C@@H]1C[C@@H]([C@H](O)CC2CC(=O)NC(=O)C2)C(=O)[C@@H](C)C1 [Cycloheximide] | did not also reversed PD-L1 stability |  | 
CCn1c(-c2nonc2N)nc2cnc(Oc3cccc(NC(=O)c4ccc(OCCN5CCOCC5)cc4)c3)cc21 [GSK269962, N-(3-{[2-(4-Amino-1,2,5-oxadiazol-3-yl)-1-ethyl-1H-imidazo[4,5-c]pyridin-6-yl]oxy}phenyl)-4-[2-(morpholin-4-yl)ethoxy]benzamide] |  | Increased average luciferase intensity | Tumor regression efficacy (tumor volume) (4T1 tumors): ineffective
CC1=C(C(=O)Nc2cc3cn[nH]c3cc2F)C(c2ccc(C(F)(F)F)cc2)CC(=O)N1 (centres unmarked) [GSK429286, N-(6-Fluoro-1H-indazol-5-yl)-6-methyl-2-oxo-4-[4-(trifluoromethyl)phenyl]-3,4-dihydro-1H-pyridine-5-carboxamide] |  | Increased average luciferase intensity | 
CC(C)C[C@@H](C=O)NC(=O)[C@H](CC(C)C)NC(=O)[C@H](CC(C)C)NC(=O)OCc1ccccc1 [MG132] (Cbz-Leu-Leu-Leu-aldehyde) |  |  | PD-L1 stability with proteasome inhibition (MG132) (PD-L1; cell surface or total lysates): increased overall PD-L1
Cc1c2oc3c(C)ccc(C(=O)N[C@@H]4C(=O)N[C@H](C(C)C)C(=O)N5CCC[C@H]5C(=O)N(C)CC(=O)N(C)[C@@H](C(C)C)C(=O)O[C@@H]4C)c3nc-2c(C(=O)N[C@@H]2C(=O)N[C@H](C(C)C)C(=O)N3CCC[C@H]3C(=O)N(C)CC(=O)N(C)[C@@H](C(C)C)C(=O)O[C@@H]2C)c(N)c1=O [actinomysin-D] (I: T[dV]P[Sar][NMeV] / II: T[dV]P[Sar][NMeV]; ester I:1-I:C, II:1-II:C; linker I:N-II:N via Actinocin(9to1)) | did not also reversed PD-L1 stability |  | 
tigatuzumab: Monospecific Antibody, Human DR5 activator; VL and VH SEQ ID NOs: 3 and 4 |  |  | PD-L1 mean fluorescent intensity (MFI) (MDA-MB-436 cells; MDA-MB-436 cells treated with DR5 agonist antibody (FIG. 20B)): 107.54; % positive PD-L1 population (MDA-MB-436 cells; MDA-MB-436 cells treated with DR5 agonist antibody, raw flow cytometry counts (FIG. 20B)): 9.32%
